{"source": "ChEMBL document CHEMBL1139601", "about": "“Novel 2-N,N-dimethylaminomethyl-2,3,3a,12b-tetrahydrodibenzo[b,f]furo[2,3-d]oxepin derivatives displaying combined norepinephrine reuptake inhibition and 5-HT2A/2C receptor antagonism” (Bioorg Med Chem Lett, 2005)", "key": {"[1]": {"biological_target": "5-hydroxytryptamine receptor 2A (Homo sapiens, UniProt P28223)", "sequence (P28223 whole entry)": "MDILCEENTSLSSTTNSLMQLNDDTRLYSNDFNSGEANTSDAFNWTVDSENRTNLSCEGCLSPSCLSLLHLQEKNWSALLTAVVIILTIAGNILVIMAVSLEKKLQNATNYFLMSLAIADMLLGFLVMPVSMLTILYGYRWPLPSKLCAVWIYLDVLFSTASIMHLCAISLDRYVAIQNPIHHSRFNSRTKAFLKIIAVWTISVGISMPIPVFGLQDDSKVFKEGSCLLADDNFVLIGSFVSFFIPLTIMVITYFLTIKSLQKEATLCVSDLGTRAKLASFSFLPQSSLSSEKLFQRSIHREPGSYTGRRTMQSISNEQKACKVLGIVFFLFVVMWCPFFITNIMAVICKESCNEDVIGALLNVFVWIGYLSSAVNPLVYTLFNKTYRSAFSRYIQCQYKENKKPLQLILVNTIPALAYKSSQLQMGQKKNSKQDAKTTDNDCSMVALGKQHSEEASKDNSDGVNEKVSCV", "experiment": "In vitro binding affinity against 5-hydroxytryptamine 2A receptor using [125I]R91150 as radioligand expressed in L929 cells", "assay_type": "cell-based"}, "[2]": {"biological_target": "T1, 5-hydroxytryptamine receptor 2C (Homo sapiens, UniProt P28335)", "T1 sequence (P28335 whole entry)": "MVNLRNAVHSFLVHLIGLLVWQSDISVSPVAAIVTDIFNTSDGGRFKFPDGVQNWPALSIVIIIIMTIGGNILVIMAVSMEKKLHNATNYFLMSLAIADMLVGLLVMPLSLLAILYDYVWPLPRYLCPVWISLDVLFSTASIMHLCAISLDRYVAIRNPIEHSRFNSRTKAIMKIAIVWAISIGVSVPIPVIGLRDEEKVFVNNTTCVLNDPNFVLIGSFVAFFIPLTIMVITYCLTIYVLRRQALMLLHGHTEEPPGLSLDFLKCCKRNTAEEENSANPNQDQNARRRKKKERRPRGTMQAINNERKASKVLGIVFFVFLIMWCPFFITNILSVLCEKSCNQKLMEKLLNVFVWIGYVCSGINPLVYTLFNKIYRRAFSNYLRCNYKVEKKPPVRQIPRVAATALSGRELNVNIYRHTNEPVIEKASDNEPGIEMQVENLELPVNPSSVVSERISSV", "experiment": "In vitro binding affinity against 5-hydroxytryptamine 2C receptor using [3H]mesulergine as radioligand expressed in CHO cells", "assay_type": "cell-based"}, "Mus musculus": {"tested_on": "Mus musculus", "experiment": "In vivo effective dose for the reversal of RO-4-1284 induced hypothermia in mice", "assay_type": "functional"}, "Rattus norvegicus [3]": {"tested_on": "Rattus norvegicus", "experiment": "In vivo effective dose for the reversal of tryptamine-induced cyanosis in rat", "assay_type": "functional"}, "Rattus norvegicus [4]": {"tested_on": "Rattus norvegicus", "experiment": "In vivo effective dose for the reversal of tryptamine-induced bilateral convulsions in rat", "assay_type": "functional"}, "Rattus norvegicus [5]": {"tested_on": "Rattus norvegicus", "experiment": "In vivo effective for the antagonism of m-chlorophenyl-piperazine induced anxiety in rat", "assay_type": "functional"}}}
{"smiles": "CCOC(=O)c1ccc2on(C[C@@H]3C[C@H]4c5ccccc5Oc5ccc(Br)cc5[C@H]4O3)c2c1", "values": [{"measurement": "Ki", "setting": "[1]", "result": 97, "unit": "nM"}, {"measurement": "Ki", "setting": "[2]", "result": 246, "unit": "nM"}]}
{"smiles": "CN(C)c1ccc2on(C[C@@H]3C[C@H]4c5ccccc5Oc5ccc(Br)cc5[C@H]4O3)c2c1", "values": [{"measurement": "Ki", "setting": "[1]", "result": 95, "unit": "nM"}, {"measurement": "Ki", "setting": "[2]", "result": 157, "unit": "nM"}]}
{"smiles": "Brc1ccc2c(c1)[C@H]1O[C@H](Cn3oc4ccc(N5CCOCC5)cc43)C[C@H]1c1ccccc1O2", "values": [{"measurement": "Ki", "setting": "[1]", "result": 306, "unit": "nM"}, {"measurement": "Ki", "setting": "[2]", "result": "> 5450", "unit": "nM"}]}
{"smiles": "COc1ccc2c(c1)[C@H]1O[C@H](CN(C)C)C[C@H]1c1ccccc1O2", "values": [{"measurement": "ED50", "setting": "Mus musculus", "result": 0.79, "unit": "mg/kg"}, {"measurement": "Ki", "setting": "[1]", "result": 22, "unit": "nM"}, {"measurement": "ED50", "setting": "Rattus norvegicus [3]", "result": 1.26, "unit": "mg/kg"}, {"measurement": "ED50", "setting": "Rattus norvegicus [4]", "result": 0.32, "unit": "mg/kg"}, {"measurement": "ED50", "setting": "Rattus norvegicus [5]", "result": "> 2.5", "unit": "mg/kg"}]}
{"smiles": "CN(C)C[C@@H]1C[C@H]2c3ccccc3Oc3ccc(F)cc3[C@H]2O1", "values": [{"measurement": "ED50", "setting": "Mus musculus", "result": 0.02, "unit": "mg/kg"}, {"measurement": "Ki", "setting": "[1]", "result": 104, "unit": "nM"}, {"measurement": "ED50", "setting": "Rattus norvegicus [3]", "result": 0.5, "unit": "mg/kg"}, {"measurement": "ED50", "setting": "Rattus norvegicus [4]", "result": 0.5, "unit": "mg/kg"}, {"measurement": "ED50", "setting": "Rattus norvegicus [5]", "result": 0.5, "unit": "mg/kg"}]}
{"smiles": "CN(C)C[C@H]1C[C@H]2c3ccccc3Oc3ccccc3[C@@H]2O1", "values": [{"measurement": "ED50", "setting": "Mus musculus", "result": 1.25, "unit": "mg/kg"}, {"measurement": "Ki", "setting": "[1]", "result": 92, "unit": "nM"}, {"measurement": "ED50", "setting": "Rattus norvegicus [3]", "result": "> 2.5", "unit": "mg/kg"}, {"measurement": "ED50", "setting": "Rattus norvegicus [4]", "result": 3.15, "unit": "mg/kg"}, {"measurement": "Ki", "setting": "[2]", "result": 183, "unit": "nM"}, {"measurement": "ED50", "setting": "Rattus norvegicus [5]", "result": "> 2.5", "unit": "mg/kg"}]}
{"smiles": "CN(C)C[C@H]1C[C@H]2c3ccccc3Oc3ccc(F)cc3[C@H]2O1", "values": [{"measurement": "ED50", "setting": "Mus musculus", "result": 0.13, "unit": "mg/kg"}, {"measurement": "Ki", "setting": "[1]", "result": 423, "unit": "nM"}, {"measurement": "ED50", "setting": "Rattus norvegicus [3]", "result": 5, "unit": "mg/kg"}, {"measurement": "ED50", "setting": "Rattus norvegicus [4]", "result": 1.98, "unit": "mg/kg"}, {"measurement": "Ki", "setting": "[2]", "result": 63, "unit": "nM"}, {"measurement": "ED50", "setting": "Rattus norvegicus [5]", "result": "> 2.5", "unit": "mg/kg"}]}
{"smiles": "CN(C)C[C@H]1C[C@@H]2c3ccccc3Oc3ccccc3[C@H]2O1", "values": [{"measurement": "ED50", "setting": "Mus musculus", "result": "> 2.5", "unit": "mg/kg"}, {"measurement": "Ki", "setting": "[1]", "result": 16, "unit": "nM"}, {"measurement": "ED50", "setting": "Rattus norvegicus [3]", "result": "> 2.5", "unit": "mg/kg"}, {"measurement": "ED50", "setting": "Rattus norvegicus [4]", "result": "> 2.5", "unit": "mg/kg"}, {"measurement": "Ki", "setting": "[2]", "result": 179, "unit": "nM"}]}
{"smiles": "CN(C)C[C@H]1C[C@H]2c3ccccc3Oc3ccc(Cl)cc3[C@H]2O1", "values": [{"measurement": "ED50", "setting": "Mus musculus", "result": 0.05, "unit": "mg/kg"}, {"measurement": "ED50", "setting": "Rattus norvegicus [3]", "result": 0.8, "unit": "mg/kg"}, {"measurement": "ED50", "setting": "Rattus norvegicus [4]", "result": 0.32, "unit": "mg/kg"}, {"measurement": "Ki", "setting": "[2]", "result": 21, "unit": "nM"}, {"measurement": "ED50", "setting": "Rattus norvegicus [5]", "result": "> 2.5", "unit": "mg/kg"}]}
{"smiles": "Nc1ccc2on(C[C@@H]3C[C@H]4c5ccccc5Oc5ccc(Br)cc5[C@H]4O3)c2c1", "values": [{"measurement": "Ki", "setting": "[1]", "result": 255, "unit": "nM"}, {"measurement": "Ki", "setting": "[2]", "result": 270, "unit": "nM"}]}
{"smiles": "Brc1ccc2c(c1)[C@H]1O[C@H](Cn3oc4ccc(-c5ccccc5)cc43)C[C@H]1c1ccccc1O2", "values": [{"measurement": "Ki", "setting": "[1]", "result": 307, "unit": "nM"}, {"measurement": "Ki", "setting": "[2]", "result": 183, "unit": "nM"}]}
{"smiles": "COc1ccc2c(c1)[C@H]1O[C@@H](CN(C)C)C[C@H]1c1ccccc1O2", "values": [{"measurement": "Ki", "setting": "[1]", "result": 193, "unit": "nM"}, {"measurement": "Ki", "setting": "[2]", "result": 235, "unit": "nM"}]}
{"smiles": "Cc1ccc2on(C[C@@H]3C[C@H]4c5ccccc5Oc5ccc(Br)cc5[C@H]4O3)c2c1", "values": [{"measurement": "ED50", "setting": "Mus musculus", "result": 1.99, "unit": "mg/kg"}, {"measurement": "Ki", "setting": "[1]", "result": 36, "unit": "nM"}, {"measurement": "ED50", "setting": "Rattus norvegicus [3]", "result": 0.5, "unit": "mg/kg"}, {"measurement": "ED50", "setting": "Rattus norvegicus [4]", "result": 0.5, "unit": "mg/kg"}, {"measurement": "Ki", "setting": "[2]", "result": 58, "unit": "nM"}, {"measurement": "ED50", "setting": "Rattus norvegicus [5]", "result": 0.8, "unit": "mg/kg"}]}
{"smiles": "CN(C)C[C@H]1C[C@H]2c3ccccc3Oc3ccc(Br)cc3[C@H]2O1", "values": [{"measurement": "Ki", "setting": "[2]", "result": 87, "unit": "nM"}]}
{"smiles": "CN(C)C[C@@H]1C[C@H]2c3ccccc3Oc3ccc(Cl)cc3[C@H]2O1", "values": [{"measurement": "ED50", "setting": "Mus musculus", "result": 0.5, "unit": "mg/kg"}, {"measurement": "ED50", "setting": "Rattus norvegicus [3]", "result": 0.2, "unit": "mg/kg"}, {"measurement": "ED50", "setting": "Rattus norvegicus [4]", "result": 0.08, "unit": "mg/kg"}, {"measurement": "ED50", "setting": "Rattus norvegicus [5]", "result": "> 2.5", "unit": "mg/kg"}]}
{"smiles": "N#Cc1ccc2on(C[C@@H]3C[C@H]4c5ccccc5Oc5ccc(Br)cc5[C@H]4O3)c2c1", "values": [{"measurement": "Ki", "setting": "[1]", "result": 185, "unit": "nM"}, {"measurement": "Ki", "setting": "[2]", "result": 183, "unit": "nM"}]}
{"smiles": "CN(C)C[C@@H]1C[C@H]2c3ccccc3Oc3ccc(Br)cc3[C@H]2O1", "values": [{"measurement": "ED50", "setting": "Mus musculus", "result": 3.15, "unit": "mg/kg"}, {"measurement": "ED50", "setting": "Rattus norvegicus [3]", "result": 0.79, "unit": "mg/kg"}, {"measurement": "ED50", "setting": "Rattus norvegicus [4]", "result": 0.32, "unit": "mg/kg"}, {"measurement": "Ki", "setting": "[2]", "result": 6, "unit": "nM"}, {"measurement": "ED50", "setting": "Rattus norvegicus [5]", "result": "> 2.5", "unit": "mg/kg"}]}
{"smiles": "O=C1CCN1c1ccc2on(C[C@@H]3C[C@H]4c5ccccc5Oc5ccc(Br)cc5[C@H]4O3)c2c1", "values": [{"measurement": "Ki", "setting": "[1]", "result": 306, "unit": "nM"}, {"measurement": "Ki", "setting": "[2]", "result": 356, "unit": "nM"}]}
{"smiles": "Brc1ccc2c(c1)[C@H]1O[C@H](Cn3oc4ccc(CN5CCOCC5)cc43)C[C@H]1c1ccccc1O2", "values": [{"measurement": "Ki", "setting": "[1]", "result": 189, "unit": "nM"}, {"measurement": "Ki", "setting": "[2]", "result": 4100, "unit": "nM"}]}
